Reference: patent US20240148821A1, “PHARMACEUTICAL USE OF CYCLIC PEPTIDE COMPOUND” (CHUGAI SEIYAKU KABUSHIKI KAISHA, priority 2021, published 2024)
Bridge positions count the residues as written; N and C are the ends. Square brackets hold non-standard residues; d marks the D form. Peptide text beside a SMILES is read from it. * marks the point of attachment. hPhe(3-Cl-4-CF3) = N[C@@H](CCc1ccc(C(F)(F)F)c(Cl)c1)C(=O)O; NMePhe(4-Me) = CN[C@@H](Cc1ccc(C)cc1)C(=O)O; NMePhe(4-F) = CN[C@@H](Cc1ccc(F)cc1)C(=O)O; NMeNva(5,5-F2) = CN[C@@H](CCC(F)F)C(=O)O; NMeGly(cPent) = CN[C@H](C(=O)O)C1CCCC1; NMeCha = CN[C@@H](CC1CCCCC1)C(=O)O; NMeGly(cPr) = CN[C@H](C(=O)O)C1CC1; NMeChg = CN[C@H](C(=O)O)C1CCCCC1; NMeI = CC[C@H](C)[C@H](NC)C(=O)O; NMeD = CN[C@@H](CC(=O)O)C(=O)O; NMeL = CN[C@@H](CC(C)C)C(=O)O; hLeu = CC(C)CC[C@H](N)C(=O)O; NMeV = CN[C@H](C(=O)O)C(C)C; d(β3hA) = C[C@@H](N)CC(=O)O; NMeS = CN[C@@H](CO)C(=O)O; NMeA = CN[C@@H](C)C(=O)O; Piperidide = C1CCN(*)CC1; Pyrrolidide = C1CCN(*)C1; Ac5c = NC1(C(=O)O)CCCC1; Sar = CNCC(=O)O

system: Human pancreatic cancer cell line AsPC-1 (G12D mutation Kras); assay: AsPC-1 cell growth inhibition (AsPC-1 CGI); type: cell-based; conditions: read-out: AsPC-1 cell growth inhibition, 50% growth inhibitory concentration (IC50 value); 96 hours, CellTiter-Glo, values classified in ranges
Description: Test compounds were serially dilated with dimethyl sulfoxide, and 200 nL was then dispensed to a U-bottom 96-well plate using Labcyte Echo. […] The cell suspension was dispensed to a. plate containing a test compound at 100 μL per well and incubated at 37° C. in a 5% carbon dioxide gas incubator. 96 hours later, 80 μL of CellTiter-Glo (Promega) was added to each well and fluorescence was measured.

`CC[C@H](C)[C@@H]1NC(=O)[C@H](CC(C)C)N(C)C(=O)C[C@@H](C(=O)N2CCCCC2)N(C)C(=O)[C@H](C2CCCCC2)N(C)C(=O)C2(CCCC2)NC(=O)[C@@H]2CCCN2C(=O)[C@H](CCc2ccc(C(F)(F)F)c(Cl)c2)NC(=O)CN(C)C(=O)[C@H](CCC(F)F)N(C)C(=O)CN(C)C(=O)CN(C)C1=O` [Compound 1647] ([NMeL]I[Sar][Sar][NMeNva(5,5-F2)][Sar][hPhe(3-Cl-4-CF3)]P[Ac5c][NMeChg][NMeD]-Piperidide; lactam N-11) and `CC[C@H](C)[C@@H]1NC(=O)[C@H](CC(C)C)N(C)C(=O)C[C@@H](C(=O)N2CCCCC2)N(C)C(=O)[C@H](C2CCCCC2)N(C)C(=O)C2(CCCC2)NC(=O)[C@@H]2CCCN2C(=O)[C@H](CCc2ccc(C(F)(F)F)c(Cl)c2)NC(=O)CN(C)C(=O)[C@H](CO)N(C)C(=O)CN(C)C(=O)CN(C)C1=O` [Compound 1687] ([NMeL]I[Sar][Sar][NMeS][Sar][hPhe(3-Cl-4-CF3)]P[Ac5c][NMeChg][NMeD]-Piperidide; lactam N-11) cannot be ordered by IC50: > 500 nM for the first, > 500 nM for the second.

`CC[C@H](C)[C@@H]1NC(=O)[C@H](CC(C)C)N(C)C(=O)C[C@@H](C(=O)N2CCCCC2)N(C)C(=O)[C@H]([C@@H](C)CC)N(C)C(=O)C2(CCCC2)NC(=O)[C@@H]2CCCN2C(=O)[C@H](CCc2ccc(C(F)(F)F)c(Cl)c2)NC(=O)CN(C)C(=O)[C@H](Cc2ccc(C)cc2)N(C)C(=O)CN(C)C(=O)CN(C)C1=O` [Compound 1649] ([NMeL]I[Sar][Sar][NMePhe(4-Me)][Sar][hPhe(3-Cl-4-CF3)]P[Ac5c][NMeI][NMeD]-Piperidide; lactam N-11) and `CC[C@H](C)[C@@H]1NC(=O)[C@H](CC(C)C)N(C)C(=O)C[C@@H](C(=O)N2CCCC2)N(C)C(=O)[C@H]([C@@H](C)CC)N(C)C(=O)C2(CCCC2)NC(=O)[C@@H]2CCCN2C(=O)[C@H](CCc2ccc(C(F)(F)F)c(Cl)c2)NC(=O)CN(C)C(=O)[C@H](CC2CCCCC2)N(C)C(=O)CN(C)C(=O)CN(C)C1=O` [Compound 1662] ([NMeL]I[Sar][Sar][NMeCha][Sar][hPhe(3-Cl-4-CF3)]P[Ac5c][NMeI][NMeD]-Pyrrolidide; lactam N-11) cannot be ordered by IC50: ≤ 20 nM for the first, ≤ 20 nM for the second.

`CC(C)CC[C@@H]1NC(=O)[C@H](CC(C)C)N(C)C(=O)C[C@@H](C(=O)N2CCCCC2)N(C)C(=O)[C@H](C2CCCCC2)N(C)C(=O)C2(CCCC2)NC(=O)[C@@H]2CCCN2C(=O)[C@H](CCc2ccc(C(F)(F)F)c(Cl)c2)NC(=O)CN(C)C(=O)[C@H](CC2CCCCC2)N(C)C(=O)CN(C)C(=O)CN(C)C1=O` [Compound 1651] ([NMeL][hLeu][Sar][Sar][NMeCha][Sar][hPhe(3-Cl-4-CF3)]P[Ac5c][NMeChg][NMeD]-Piperidide; lactam N-11) and `CC[C@H](C)[C@@H]1NC(=O)[C@H](CC(C)C)N(C)C(=O)C[C@@H](C(=O)N2CCCCC2)N(C)C(=O)[C@H](C2CCCCC2)N(C)C(=O)C2(CCCC2)NC(=O)[C@@H]2CCCN2C(=O)[C@H](CCc2ccc(C(F)(F)F)c(Cl)c2)NC(=O)CN(C)C(=O)[C@H](C2CC2)N(C)C(=O)CN(C)C(=O)CN(C)C1=O` [Compound 1666] ([NMeL]I[Sar][Sar][NMeGly(cPr)][Sar][hPhe(3-Cl-4-CF3)]P[Ac5c][NMeChg][NMeD]-Piperidide; lactam N-11) cannot be ordered by IC50: > 500 nM for the first, > 500 nM for the second.

First: CC[C@H](C)[C@@H]1NC(=O)[C@H](CC(C)C)N(C)C(=O)C[C@@H](C(=O)N(C)C)N(C)C(=O)[C@H](C2CCCC2)N(C)C(=O)C2(CCCC2)NC(=O)[C@@H]2CCCN2C(=O)[C@H](CCc2ccc(C(F)(F)F)c(Cl)c2)NC(=O)CN(C)C(=O)[C@H](CC2CCCCC2)N(C)C(=O)CN(C)C(=O)CN(C)C1=O [Compound 1659] ([NMeL]I[Sar][Sar][NMeCha][Sar][hPhe(3-Cl-4-CF3)]P[Ac5c][NMeGly(cPent)][NMeD]-NMe2; lactam N-11)
Second: CC[C@H](C)[C@@H]1NC(=O)[C@H](CC(C)C)N(C)C(=O)C[C@@H](C(=O)N2CCCCC2)N(C)C(=O)[C@H](C2CCCCC2)N(C)C(=O)C2(CCCC2)NC(=O)[C@@H]2CCCN2C(=O)[C@H](CCc2ccc(C(F)(F)F)c(Cl)c2)NC(=O)CN(C)C(=O)[C@H](C)N(C)C(=O)CN(C)C(=O)CN(C)C1=O [Compound 1681] ([NMeL]I[Sar][Sar][NMeA][Sar][hPhe(3-Cl-4-CF3)]P[Ac5c][NMeChg][NMeD]-Piperidide; lactam N-11)
The IC50 of the first is lower: ≤ 20 nM for the first, > 500 nM for the second. The first is the more potent here.

`CC[C@H](C)[C@@H]1NC(=O)[C@H](C)N(C)C(=O)C[C@@H](C)NC(=O)[C@H](C(C)C)N(C)C(=O)C2(CCCC2)NC(=O)[C@@H]2CCCN2C(=O)[C@H](CCc2ccc(C(F)(F)F)c(Cl)c2)NC(=O)[C@H]2CCCN2C(=O)[C@H](Cc2ccc(F)cc2)N(C)C(=O)[C@@H]2CCCN2C(=O)CN(C)C1=O` [Compound 1667] (cyclo([Ac5c][NMeV][d(β3hA)][NMeA]I[Sar]P[NMePhe(4-F)][dP][hPhe(3-Cl-4-CF3)]P)) and `CC[C@H](C)[C@@H]1NC(=O)[C@H](C)N(C)C(=O)C[C@@H](C)NC(=O)[C@H](C2CCCCC2)N(C)C(=O)C2(CCCC2)NC(=O)[C@@H]2CCCN2C(=O)[C@H](CCc2ccc(C(F)(F)F)c(Cl)c2)NC(=O)CN(C)C(=O)[C@H](CC2CCCCC2)N(C)C(=O)CN(C)C(=O)CN(C)C1=O` [Compound 1688] (cyclo([Ac5c][NMeChg][d(β3hA)][NMeA]I[Sar][Sar][NMeCha][Sar][hPhe(3-Cl-4-CF3)]P)) cannot be ordered by IC50: > 500 nM for the first, > 500 nM for the second.
